Laboratory results from patent US20260028334A1, “N-(3-(BENZO[B]THIOPHENE-2-CARBOXAMIDO)-PHENYL)-2,3-DIHYDROBENZO[B][1,4]DIOXINE-6-CARBOXAMIDE DERIVATIVES AND RELATED COMPOUNDS AS LACTATE/ATP PRODUCTION INHIBITORS FOR THE TREATMENT OF CANCER” (WMT Aktiengesellschaft, priority 2022, published 2026).

Legend:
[1] = tested on: HeLa, 4T1, LLC1, A549, MDA-MB-231 and MiaPaCa2 cells; assay: Assay for inhibition of ATP production (FIG. 1); format: cell-based; conditions: 48 hours treatment, 1.5 to 10000 nM
Experimental: The assay determines the amount of ATP in cells in culture.
Cells were plated at 4,000 per well in 96-well plate in a medium of high glucose DMEM (PAN) supplemented with 10% FBS (PAN), 2 mM glutamine-alanine (PAN), 2 mM pyruvate (Sigma) and 10 mL/L penicillin-streptomycin and grown at 37° C. in 0.5% O2, 5% CO2 and 75% humidity. For hypoxia, cells were grown and treated in the Whitley H35 Hypoxystation (Don Whitley Scientific) at 37° C. in 0.5% O2, 5% CO2 and 75% humidity. The next day, cells were induced with test compounds (FIG. 1: compounds of examples 3/16, 3/8, 10 at 10000, 3333, 1111, 370, 123, 41, 14, 5 and 1.5 nM; FIGS. 8A and 8B: compounds of example 3/19, 30 and 30/2 at 10000, 3333, 1111, 370, 123, 41, 14, 5 and 1.5 nM), as well as with vehicle (DMSO) only, for 48 hours. After this time, the medium was removed from the cells and intracellular ATP levels were determined using the Promega CellTiter-Glo 2.0 assay protocol (Promega, G9241). To estimate the effect of compounds on the ATP production, sample values were compared to the values of DMSO only. IC50 values were generated by plotting the luciferase counts against compound concentration.

HIF1a = HIF1a (Homo sapiens (Human), UniProt Q16665); assay: Western Blot analysis of HIF1a; format: cell-based; conditions: HeLa cells, 24 hours, 0.1, 0.3 and 1 μM, normoxic and hypoxic conditions, FIG. 4
Experimental: Western Blot analysis was used to detect amounts of specific protein in differently treated cells. Proteins are separated by size, transferred onto a nitrocellulose membrane and incubated with protein specific antibodies. The density of the observed band is proportional to the amount of the specific protein inside the cell.
Cells were plated at 4×10^6 (for hypoxia) or 3×10^6 (for normoxia) cells per […] plate in medium of high glucose DMEM (PAN) supplemented with 10% FBS (PAN), 2 mM glutamine-alanine (PAN), 2 mM pyruvate (Sigma) and 10 ml/L penicillin-streptomycin (PAN), and grown at 37° C. in 0.5% O2, 5% CO2 and 75% humidity. For hypoxia, cells were grown and treated in the Whitley H35 Hypoxystation (Don Whitley Scientific) at 37° C. in 0.5% O2, 5% CO2 and 75% humidity. Next day, the cells were treated with test compounds (FIG. 4: compounds of example 3/8 and 10 at concentrations 0.1, 0.3 and 1 μM, Bafilomycin A at 20 nM; FIG. 5: compounds of example 3/16, 3/8 and 10 at concentrations 10, 30 and 100 nM, Bafilomycin A at 20 nM), as well as with vehicle (DMSO) only, for 24 h. […] Protein concentration of the sample was measured using the DC Protein Assay Kit (Biorad, 5000112), 22 μg of protein extract per well was loaded onto a precast SDS page gel (Biorad, 1704273). […] The chemiluminescence was measured using chemiluminescent substrate (#34580, Thermo Scientific).

Row | HIF1a protein levels (HIF1a) | SMILES | ATP production level [1]
1 | dose-dependent reduction | O=C(Nc1ccc(F)c(NC(=O)c2cc3ccc(OCCCN4CCCC4)cc3s2)c1)c1ccc2c(c1)OCCO2 [3/8] | dose-dependent reduction
2 |  | Cc1ccc(NC(=O)c2ccc3c(c2)OCCO3)cc1NC(=O)c1cc2cccnc2s1 [3/16] | dose-dependent reduction
